Assay results as given in US11752125B2, “Anti-neuroinflammatory and protective compounds in Achillea fragrantissima” (THE STATE OF ISRAEL MINISTRY OF AGRICULTURE & RURAL …, priority 2013, dated 2023).

System: MEK1
Assay: H2O2-induced MEK1 phosphorylation in astrocytes (ELISA)
Type: cell-based, rat
Details: H2O2 175 μM 40 min; for effect on H2O2-induced phosphorylation of MEK1: astrocytes preincubated 2 h
Description: Astrocytes were treated with TTF 2 h before the addition of H2O2. Cells were lysed 40 minutes after the addition of H2O2 in lysis buffer supplied by PathScan sandwich ELISA kit (Cell Signaling TECHNOLOGY) according to the manufacturer's protocol. Protein concentrations in cell lysates were determined by Bradford reagent (Bio-Rad, Hercules, Calif.), and equal amounts of proteins were subjected to ELISA. To measure the amount of total and phosphoSAPK/JNK in cell lysates of astrocytes, ELISA was performed according to the manufacturer's protocol using the PathScan total SAPK/JNK sandwich ELISA kit (Cell Signaling TECHNOLOGY) and the PathScan phospho-SAPK/JNK (Thr183/Tyr185) sandwich ELISA kit (Cell Signaling TECHNOLOGY), respectively. To measure the amount of total and phospho-ERK 1/2 (i.e. phospho-p44/42 MAPK) in cell lysates of astrocytes, ELISA was performed according to the manufacturer's protocol using the PathScan total p44/42 MAPK (ERK 1/2) sandwich ELISA kit (Cell Signaling TECHNOLOGY) and the PathScan phospho-p44/42 MAPK (Thr202/Tyr204) sandwich ELISA kit (Cell Signaling TECHNOLOGY), respectively. To measure the amount of total and phospho-MEK1 in cell lysates of astrocytes, ELISA was performed according to the manufacturer's protocol using the PathScan total MEK1 sandwich ELISA kit (Cell Signaling TECHNOLOGY) and the PathScan phospho-MEK1 (Ser217/221) sandwich ELISA kit (Cell Signaling TECHNOLOGY), respectively. […] The optical density was determined at 450 nm using a microplate reader.
1. […] Determine the optical density at 450 nm using a microplate reader.
Astrocytes were treated with 175 μM of H2O2 for 40 min following preincubation with TTF for 2 h. The levels of phosphorylated and total SAPK/JNK (FIG. 3A), MEK1 (FIG. 3B) and ERK 1/2 (FIG. 3C) were measured by ELISA. […]

Row | SMILES | inhibition of H2O2-induced phosphorylation of MEK1 (astrocytes pretreated 2 h, total MEK1 not affected) | effect on H2O2-induced phosphorylation of MEK1
1 | COc1cc(-c2oc3cc(OC)c(OC)c(O)c3c(=O)c2O)ccc1O [TTF, 3,5,4′-trihydroxy-6,7,3′-trimethoxyflavone] | 27% | 
2 | C=C1CCC2=C(CO)C(=O)O[C@H]2/C=C(\C)[C@H](OC(C)=O)CC1=O [achillolide A] |  | inhibitory effect
3 | CC12CC3CC(C)(C1)CC(N)(C3)C2 [memantine, reference compound] |  | inhibitory effect
